Measurements: patent US20230398130A1, “METHODS AND COMPOSITIONS FOR DIFFERENTIATING STEM CELLS” (Massachusetts Institute of Technology, priority 2020, published 2023)

Key:
ISC-enriched organoids [1] = assay: Primary screen, 384-well 2.5-D organoid differentiation (ENR+CD, 6 days): basal lysozyme secretion (LYZ.NS); format: cell-based, murine; conditions: primary screen; for Dose.FC.LYZ.NS: FC vs plate median; for Z.LYZ.NS: standard z score; for SSMD.LYZ.NS: strictly standardized mean difference
Text: (§1) High-throughput screening.

ISC-enriched organoids [2] = assay: Primary screen, 384-well 2.5-D organoid differentiation (ENR+CD, 6 days): carbachol-induced lysozyme secretion (LYZ.S); format: cell-based, murine; conditions: primary screen; for Dose.FC.LYZ.S: FC vs plate median; for Z.LYZ.S: standard z score; for SSMD.LYZ.S: strictly standardized mean difference
Text: as §1

ISC-enriched organoids [3] = assay: Primary screen, 384-well 2.5-D organoid differentiation (ENR+CD, 6 days, Target Selective Inhibitor Library, vs whole-plate median): ATP (CellTiter-Glo 3D, CTG); conditions: primary screen; for Dose.FC.CTG: FC vs plate median; for Z.CTG: standard z score; for SSMD.CTG: strictly standardized mean difference
[4] = 1st of the 4 dose lines of the treatment (dose not given)
[5] = 2nd of the 4 dose lines of the treatment (dose not given)
[6] = 3rd of the 4 dose lines of the treatment (dose not given)
[7] = 4th of the 4 dose lines of the treatment (dose not given)

Structure (SMILES) | SSMD.LYZ.NS (ISC-enriched organoids [1]; [4]) | SSMD.LYZ.NS (ISC-enriched organoids [1]; [5]) | SSMD.LYZ.NS (ISC-enriched organoids [1]; [6]) | SSMD.LYZ.NS (ISC-enriched organoids [1]; [7]) | Z.LYZ.S (ISC-enriched organoids [2]; [4]) | Z.LYZ.S (ISC-enriched organoids [2]; [5]) | Z.LYZ.S (ISC-enriched organoids [2]; [6]) | Z.LYZ.S (ISC-enriched organoids [2]; [7]) | SSMD.LYZ.S (ISC-enriched organoids [2]; [4]) | SSMD.LYZ.S (ISC-enriched organoids [2]; [5]) | SSMD.LYZ.S (ISC-enriched organoids [2]; [6]) | SSMD.LYZ.S (ISC-enriched organoids [2]; [7]) | Z.CTG (ISC-enriched organoids [3]; Dose 0.08 uM) | Z.CTG (ISC-enriched organoids [3]; Dose 0.40 uM) | Z.CTG (ISC-enriched organoids [3]; Dose 2.00 uM) | Z.CTG (ISC-enriched organoids [3]; Dose 10.00 uM) | SSMD.CTG (ISC-enriched organoids [3]; [4]) | SSMD.CTG (ISC-enriched organoids [3]; [5]) | SSMD.CTG (ISC-enriched organoids [3]; [6]) | SSMD.CTG (ISC-enriched organoids [3]; [7]) | further results
Cc1cc(Nc2cc(CN3CCOCC3)c3nc(C)c(Cc4ccc(Cl)cc4F)n3n2)n[nH]1 [LY2784544] | 0.395 | 0.037 | 0.582 | −2.015 | 0.794 | 0.498 | 0.737 | −2.373 | 0.911 | 0.595 | 0.492 | −2.074 | 0.259 | 0.148 | 0.433 | −1.984 | 0.378 | 0.135 | 0.500 | −1.283 | Dose.FC.LYZ.NS (ISC-enriched organoids [1]; Dose 0.08 uM): 0.132 log 2 fold change; Z.LYZ.NS (ISC-enriched organoids [1]; Dose 0.08 uM): 1.152; Dose.FC.LYZ.NS (ISC-enriched organoids [1]; Dose 0.40 uM): 0.004 log 2 fold change; Z.LYZ.NS (ISC-enriched organoids [1]; Dose 0.40 uM): 0.033; Dose.FC.LYZ.NS (ISC-enriched organoids [1]; Dose 2.00 uM): 0.068 log 2 fold change; Z.LYZ.NS (ISC-enriched organoids [1]; Dose 2.00 uM): 0.591; Dose.FC.LYZ.NS (ISC-enriched organoids [1]; Dose 10.00 uM): −0.280 log 2 fold change; Z.LYZ.NS (ISC-enriched organoids [1]; Dose 10.00 uM): −2.439; Dose.FC.LYZ.S (ISC-enriched organoids [2]; Dose 0.08 uM): 0.123 log 2 fold change; Dose.FC.LYZ.S (ISC-enriched organoids [2]; Dose 0.40 uM): 0.077 log 2 fold change; Dose.FC.LYZ.S (ISC-enriched organoids [2]; Dose 2.00 uM): 0.114 log 2 fold change; Dose.FC.LYZ.S (ISC-enriched organoids [2]; Dose 10.00 uM): −0.367 log 2 fold change; Dose.FC.CTG (ISC-enriched organoids [3]; Dose 0.08 uM): 0.108 log 2 fold change; Dose.FC.CTG (ISC-enriched organoids [3]; Dose 0.40 uM): 0.062 log 2 fold change; Dose.FC.CTG (ISC-enriched organoids [3]; Dose 2.00 uM): 0.181 log 2 fold change; Dose.FC.CTG (ISC-enriched organoids [3]; Dose 10.00 uM): −0.831 log 2 fold change
O=C(C[S+]([O-])Cc1ccco1)NC/C=C\COc1cc(CN2CCCCC2)ccn1 (stereo not shown) [Lafutidine] | 0.285 | 0.064 | 0.359 | 0.581 | 0.339 | 0.506 | 0.491 | −0.093 | 0.331 | 0.460 | 0.503 | −0.111 | 0.363 | 0.346 | 0.329 | −0.235 | 0.452 | 0.476 | 0.505 | −0.249 | 
Nc1cccc2c1CN(C1CCC(=O)NC1=O)C2=O (stereo not shown) [Lenalidomide (CC-5013)] | 1.215 | 0.674 | 0.472 | −0.318 | 0.639 | 1.137 | 0.162 | −0.290 | 0.593 | 0.873 | 0.193 | −0.298 | 0.110 | −0.037 | −0.596 | −0.754 | 0.169 | −0.049 | −0.710 | −0.802 | Dose.FC.LYZ.NS (ISC-enriched organoids [1]; Dose 0.08 uM): 0.147 log 2 fold change; Z.LYZ.NS (ISC-enriched organoids [1]; Dose 0.08 uM): 1.283; Dose.FC.LYZ.NS (ISC-enriched organoids [1]; Dose 0.40 uM): 0.099 log 2 fold change; Z.LYZ.NS (ISC-enriched organoids [1]; Dose 0.40 uM): 0.863; Dose.FC.LYZ.NS (ISC-enriched organoids [1]; Dose 2.00 uM): 0.071 log 2 fold change; Z.LYZ.NS (ISC-enriched organoids [1]; Dose 2.00 uM): 0.615; Dose.FC.LYZ.NS (ISC-enriched organoids [1]; Dose 10.00 uM): −0.041 log 2 fold change; Z.LYZ.NS (ISC-enriched organoids [1]; Dose 10.00 uM): −0.360; Dose.FC.LYZ.S (ISC-enriched organoids [2]; Dose 0.08 uM): 0.099 log 2 fold change; Dose.FC.LYZ.S (ISC-enriched organoids [2]; Dose 0.40 uM): 0.176 log 2 fold change; Dose.FC.LYZ.S (ISC-enriched organoids [2]; Dose 2.00 uM): 0.025 log 2 fold change; Dose.FC.LYZ.S (ISC-enriched organoids [2]; Dose 10.00 uM): −0.045 log 2 fold change; Dose.FC.CTG (ISC-enriched organoids [3]; Dose 0.08 uM): 0.046 log 2 fold change; Dose.FC.CTG (ISC-enriched organoids [3]; Dose 0.40 uM): −0.016 log 2 fold change; Dose.FC.CTG (ISC-enriched organoids [3]; Dose 2.00 uM): −0.250 log 2 fold change; Dose.FC.CTG (ISC-enriched organoids [3]; Dose 10.00 uM): −0.316 log 2 fold change
N#Cc1ccc(C(c2ccc(C#N)cc2)n2cncn2)cc1 [Letrozole] | 0.554 | 1.104 | 0.063 | −0.042 | 0.258 | 0.970 | 0.038 | 0.040 | 0.212 | 0.764 | 0.041 | 0.028 | −0.031 | 0.241 | 0.236 | 0.408 | −0.043 | 0.336 | 0.288 | 0.606 | 
CCN1CCC[C@H]1CNC(=O)c1cc(S(N)(=O)=O)ccc1OC [Levosulpiride] | 0.092 | 0.226 | 0.501 | −0.195 | −0.108 | 0.830 | 0.800 | −0.168 | −0.076 | 0.774 | 0.531 | −0.154 | −0.102 | −0.015 | 0.074 | 0.215 | −0.129 | −0.019 | 0.087 | 0.297 | 
CCN(CC)CC(=O)Nc1c(C)cccc1C [Lidocaine] | 0.904 | 0.132 | 0.008 | 0.183 | 0.537 | 0.167 | −0.244 | −0.061 | 0.448 | 0.197 | −0.268 | −0.070 | −0.188 | −0.365 | 0.081 | −0.611 | −0.237 | −0.371 | 0.116 | −0.889 | 
CC#CCn1c(N2CCC[C@@H](N)C2)nc2c1c(=O)n(Cc1nc(C)c3ccccc3n1)c(=O)n2C [Linagliptin] | 1.046 | 0.306 | 0.118 | 0.671 | 0.905 | 0.305 | −0.204 | 0.322 | 0.797 | 0.215 | −0.126 | 0.374 | 0.389 | 0.499 | 0.054 | −0.027 | 0.299 | 0.612 | 0.047 | −0.025 | 
